Measured values reported in patent US10966996B2, “Glechoma longitube extract, preparation method for same, and use thereof in sugar reduction, weight loss, and lipid reduction” (SHANGHAI INSTITUTE OF MATERIA MEDICA CHINESE ACADEMY OF …, priority 2014, dated 2021).

Legend:
Assay type in all cases: biochemical
hDGAT1 = molecular target: T1, hDGAT1 (Homo sapiens, UniProt O75907); experiment: inhibitory activity against hDGAT1 (CPM fluorescence)
T1 construct: made in house; host or cells: insect cells
T1 sequence (O75907 1-488): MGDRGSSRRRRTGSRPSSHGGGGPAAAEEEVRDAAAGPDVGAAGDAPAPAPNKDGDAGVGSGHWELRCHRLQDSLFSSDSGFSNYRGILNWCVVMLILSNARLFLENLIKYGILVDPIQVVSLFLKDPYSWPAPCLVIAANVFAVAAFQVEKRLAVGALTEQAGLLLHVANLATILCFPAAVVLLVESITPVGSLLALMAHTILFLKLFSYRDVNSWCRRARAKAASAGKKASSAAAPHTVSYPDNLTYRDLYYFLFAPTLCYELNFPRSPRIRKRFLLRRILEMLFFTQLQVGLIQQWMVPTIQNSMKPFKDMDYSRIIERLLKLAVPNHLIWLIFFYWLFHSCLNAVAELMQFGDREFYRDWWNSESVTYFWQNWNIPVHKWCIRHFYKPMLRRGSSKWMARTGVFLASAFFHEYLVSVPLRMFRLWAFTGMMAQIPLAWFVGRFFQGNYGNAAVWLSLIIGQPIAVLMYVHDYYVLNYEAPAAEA
Description: Experimental method: (1) the effect of the extract of Glechoma longituba (Nakai) Kupr., LQC-H-1, on serum triglyceride level was evaluated in acute hypertriglyceridemic mouse model; 6-week old male C57BL/KsJ mice (Shanghai Slac Laboratory Animal Company), 8 for each group, weight of 20±2 g, were fed according to SPF grade operation procedure and fasted overnight for 16 hours prior to experiment. Compounds of different concentrations were intragastric administrated to each administration group of mice, respectively. Equal volume of water was given to control group and blank group of mice. 30 mins later, 2 g/kg olive oil was intragastric administrated to administration group and control group of mice, while equal volume of water was given to blank group of mice. 2 hours later, blood was collected from orbital vein of each group of mice for the separation of serum, and concentration of triglyceride in the serum was measured; (2) inhibitory activity of the individual compounds separated from the extract of Glechoma longituba (Nakai) Kupr., LQC-H-1, against diacylglycerol acyltransferase (DGAT): human derived DGAT1 obtained by expression and purification with insect cells were pre-incubated together with the compounds, substrate diacylglycerol was added to initiate the reaction in the presence of coenzyme A, fluorescence signal generated by the combination of produced sulfydryl and CPM was measured, and the inhibitory activity of the compound against DGAT was calculated according to the following formula: Inhibition rate %=(OD blank−OD compound)/(OD blank−OD negative control)*100%
(§1) OD compound, OD blank, and OD negative control represented the fluorescence values from a compound well, a blank well, and a negative control well free of DGAT1 enzyme, and the concentrations of the compounds when the enzyme activity inhibition rate (%) reached 50% were set as IC50 value; (3) inhibitory activity of the individual compounds separated from the extract of Glechoma longituba (Nakai) Kupr., LQC-H-1, against pancrelipase: substrate p-Nitrophenyl acetate (Sigma, USA) was formulated to 1.35 mM with phosphate buffer (25 mM, pH 6.8); porcine pancrelipase (Sigma) was formulated to 10 mg/ml with phosphate buffer; brominated eneyne compounds were formulated to solutions of different concentrations with phosphate buffer. Then, 50 μl of 1.35 mM p-Nitrophenyl acetate (Sigma, USA) solution and 10 μl of test compounds of different concentrations were sequentially added into a 96-well plate and pre-incubated at 37° C. for 5 mins. Finally, 50 μl of 10 mg/ml pancrelipase (EC 3.1.1.3, Sigma, USA) was added and mixed. The reaction proceeded at 37° C. for further 20 mins Absorbance of each well was measured at 492 nm. The inhibition rates (%) of the test samples against pancrelipase were calculated based on the absorbance at 492 nm. The concentrations of the compounds when then enzyme activity inhibition rate (%) reached 50% was set as IC50 value. The inhibition rate (%) could be calculated according to the following formula: Inhibition rate (%)=[(A−B)−(C−D)]/(A−B)×100

porcine pancrelipase = molecular target: T2, porcine pancrelipase (Sus scrofa, UniProt P00591); experiment: inhibitory activity against pancrelipase (p-Nitrophenyl acetate substrate); details: 10 μM
T2 construct: purchased Sigma
T2 sequence (P00591 1-450): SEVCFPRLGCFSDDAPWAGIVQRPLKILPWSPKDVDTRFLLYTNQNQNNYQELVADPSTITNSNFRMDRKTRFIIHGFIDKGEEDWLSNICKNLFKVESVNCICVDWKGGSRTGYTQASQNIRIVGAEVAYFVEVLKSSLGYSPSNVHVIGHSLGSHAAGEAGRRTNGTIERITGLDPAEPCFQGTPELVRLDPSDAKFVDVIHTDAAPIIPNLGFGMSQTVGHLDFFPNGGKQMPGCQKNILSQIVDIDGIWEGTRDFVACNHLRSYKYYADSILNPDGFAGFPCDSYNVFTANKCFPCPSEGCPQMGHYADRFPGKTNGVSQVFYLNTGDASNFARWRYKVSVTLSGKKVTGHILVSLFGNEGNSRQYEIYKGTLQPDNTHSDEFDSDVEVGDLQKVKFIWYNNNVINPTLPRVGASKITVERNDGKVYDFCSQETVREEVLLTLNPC
Source text: as §1
In the above formula, A, B, C, and D represented the absorbance of a blank well after the reaction, the absorbance of a blank well prior to the reaction, the absorbance of a sample well after the reaction, and the absorbance of a sample well prior to the reaction.

glucose oxidase (GOX) = molecular target: T3, glucose oxidase (GOX) (Homo sapiens, UniProt Q9UJM8); experiment: inhibitory activity against glucose oxidase (GOX), enzyme coupling method with glycolic acid substrate; parameters: Vmax: unit not given here
T3 sequence (Q9UJM8 1-370): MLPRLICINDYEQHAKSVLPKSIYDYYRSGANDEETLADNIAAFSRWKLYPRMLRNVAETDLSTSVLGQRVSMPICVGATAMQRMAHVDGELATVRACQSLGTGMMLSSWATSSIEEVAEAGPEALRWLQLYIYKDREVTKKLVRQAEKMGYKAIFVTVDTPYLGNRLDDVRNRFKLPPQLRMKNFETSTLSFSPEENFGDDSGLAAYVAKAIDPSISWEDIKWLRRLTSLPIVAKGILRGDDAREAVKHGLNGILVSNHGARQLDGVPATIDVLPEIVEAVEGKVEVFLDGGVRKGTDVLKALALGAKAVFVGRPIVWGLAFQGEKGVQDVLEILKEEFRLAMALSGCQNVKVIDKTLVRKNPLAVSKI
Description: Mechanism of experiment: enzyme coupling method utilizes peroxidase (POD) and substrates thereof to react with generated H2O2 to produce colored products so as to determine the catalytic reaction rate of glucose oxidase. POD catalyzes H2O2 to react with phenol and 4-amino antipyrine to produce brown-red quinone substances.
Experimental method: reagents were added according to the table below; the reaction was immediately initiated upon the final addition of substrate glycolic acid; the kinetic course of the reaction was detected by microplate reader; the enzyme activity was represented by Vmax, maximum reaction velocity.
The measurement results were fitted by Graphpad Prism 5.0 to calculate IC50 values.

**Q.** Which results are given for `O=C(Nc1ccccc1)Nc1ccc(-c2ccc(C(=O)[C@@H]3CCC[C@H]3C(=O)O)cc2)cc1` [A 922500, reference compound]?
**A.** Inhibition rate (%) (10 μM) against hDGAT1 (hDGAT1; 10 μM): 83.36%; Inhibition rate (%) (50 μM) against hDGAT1 (hDGAT1; 50 μM): 97.51%

**Q.** With `CCCCCCCCCCC[C@@H](C[C@@H]1OC(=O)[C@H]1CCCCCC)OC(=O)[C@H](CC(C)C)NC=O` [Olistat, reference compound] as the compound, how does the “Inhibition rate % (10 μM) against pancrelipase” value (porcine pancrelipase) read?
**A.** 83.96%

**Q.** Which Vmax (glucose oxidase (GOX); 0.1 μM) does the source give for `O=c1c(O)c(-c2ccc(O)c(O)c2)oc2cc(O)cc(O)c12` [Quercetin, reference compound] here?
**A.** 34.68 ± 0.06

**Q.** And the inhibition at 0.1 µM (glucose oxidase (GOX); 0.1 μM, read-out: Inhibition rate)?
**A.** 2.82 ± 0.16%

**Q.** What about the Vmax (glucose oxidase (GOX); 0.3 μM) of the same compound?
**A.** 34.66 ± 0.20

**Q.** And the inhibition at 0.3 µM (glucose oxidase (GOX); 0.3 μM, read-out: Inhibition rate)?
**A.** 2.87 ± 0.57%

**Q.** And the Vmax (glucose oxidase (GOX); 1 μM)?
**A.** 33.85 ± 0.55

**Q.** And the inhibition at 1 µM (glucose oxidase (GOX); 1 μM, read-out: Inhibition rate)?
**A.** 5.12 ± 1.53%

**Q.** What about the Vmax (glucose oxidase (GOX); 3 μM) of the same compound?
**A.** 30.21 ± 0.12

**Q.** What about the inhibition at 3 µM (glucose oxidase (GOX); 3 μM, read-out: Inhibition rate) of the same compound?
**A.** 15.3 ± 0.32%

**Q.** What about the Vmax (glucose oxidase (GOX); 10 μM) of the same compound?
**A.** 26.55 ± 0.15

**Q.** And the inhibition at 10 µM (glucose oxidase (GOX); 10 μM, read-out: Inhibition rate)?
**A.** 25.6 ± 0.41%

**Q.** What about the Vmax (glucose oxidase (GOX); 30 μM) of the same compound?
**A.** 16.54 ± 0.12

**Q.** And the inhibition at 30 µM (glucose oxidase (GOX); 30 μM, read-out: Inhibition rate)?
**A.** 53.66 ± 0.34%

**Q.** What about the Vmax (glucose oxidase (GOX); 100 μM) of the same compound?
**A.** −1.40 ± 8.87

**Q.** What about the inhibition at 100 µM (glucose oxidase (GOX); 100 μM, read-out: Inhibition rate) of the same compound?
**A.** 104 ± 24.9%

**Q.** What about the IC50 (glucose oxidase (GOX); fitted by Graphpad Prism 5.0) of the same compound?
**A.** 21 µM
